Source: BigSolDB 2.1

CC(=O)N[C@@H](CC(C)C)C(=O)O
solubility (mole fraction)
Details | 283.15 K | 288.15 K | 293.15 K | 298.15 K | 303.15 K | 308.15 K | 313.15 K | 318.15 K | 323.15 K
in acetone | 0.00363 | 0.00434 | 0.00525 | 0.0062 | 0.00734 | 0.00886 | 0.0106 | 0.0124 | 0.0146
in acetonitrile | 0.000712 | 0.000811 | 0.00114 | 0.00141 | 0.00163 | 0.00198 | 0.00249 | 0.00295 | 0.00335
in ethanol | 0.0243 | 0.0278 | 0.0314 | 0.0353 | 0.0396 | 0.0456 | 0.0504 | 0.0567 | 0.0624
in ethyl acetate | 0.00103 | 0.00127 | 0.0015 | 0.00178 | 0.00207 | 0.00243 | 0.0028 | 0.00328 | 0.00374
in isobutanol | 0.0148 | 0.0176 | 0.0206 | 0.0242 | 0.0283 | 0.0328 | 0.0375 | 0.0425 | 0.0478
in isopropanol | 0.0177 | 0.0206 | 0.0238 | 0.0274 | 0.0313 | 0.0354 | 0.0405 | 0.0464 | 0.0526
in methanol | 0.0309 | 0.0357 | 0.0403 | 0.0456 | 0.0514 | 0.0589 | 0.066 | 0.0729 | 0.0824
in methyl acetate | 0.00106 | 0.00134 | 0.00159 | 0.00191 | 0.00223 | 0.00259 | 0.0033 | 0.00396 | 0.00453
in n-butanol | 0.017 | 0.0192 | 0.0221 | 0.0255 | 0.0291 | 0.0331 | 0.0379 | 0.0429 | 0.0489
in n-propanol | 0.0196 | 0.0223 | 0.0251 | 0.0286 | 0.0329 | 0.0376 | 0.0424 | 0.0478 | 0.0541
in n-propyl acetate | 0.00087 | 0.00107 | 0.00126 | 0.00149 | 0.00177 | 0.00211 | 0.00249 | 0.003 | 0.00357
in sec-butanol | 0.0177 | 0.0207 | 0.0241 | 0.0279 | 0.0325 | 0.037 | 0.042 | 0.0473 | 0.0541
